According to ChEMBL document CHEMBL1201862, “PubChem BioAssay data set” (2004):
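Cultured in 96-well plates, cells were exposed to test compound for 48 hours across five concentrations. GI50 = concentration required for 50% inhibition of growth.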 Active and inactive are the calls of the source. No stated cut-off is given here; in the data, active = GI50 up to about 1.1 µM and inactive = higher.

Legend:
Experiment in all cases: DTP human tumour cell line panel, 48 h
786-0 = test system: 786-0
SF-268 = test system: SF-268
SN12C = test system: SN12C
SK-OV-3 = test system: SK-OV-3
NCI-H460 = test system: NCI-H460
HCT-15 = test system: HCT-15
SNB-75 = test system: SNB-75
PC-3 = test system: PC-3
LOX IMVI = test system: LOX IMVI
TK-10 = test system: TK-10
Hs-578T = test system: Hs-578T
M14 = test system: M14
SNB-19 = test system: SNB-19
ACHN = test system: ACHN
UACC-62 = test system: UACC-62
SW-620 = test system: SW-620
HT-29 = test system: HT-29
MDA-MB-231 = test system: MDA-MB-231
CAKI-1 = test system: CAKI-1
SR = test system: SR

SMILES	GI50 (786-0)	GI50 (SF-268)	GI50 (SN12C)	GI50 (SK-OV-3)	GI50 (NCI-H460)	GI50 (HCT-15)	GI50 (SNB-75)	GI50 (PC-3)	GI50 (LOX IMVI)	GI50 (TK-10)	GI50 (Hs-578T)	GI50 (M14)	GI50 (SNB-19)	GI50 (ACHN)	GI50 (UACC-62)	GI50 (SW-620)	GI50 (HT-29)	GI50 (MDA-MB-231)	GI50 (CAKI-1)	GI50 (SR)
CC(=O)NNc1nc(-c2ccc([N+](=O)[O-])cc2)c(C#N)c(=O)n1C	22.1 µM (inactive)	33.1 µM (inactive)	> 100 µM (inactive)	> 100 µM (inactive)	> 100 µM (inactive)	29.3 µM	18.9 µM (inactive)	37.7 µM (inactive)	16.9 µM (inactive)	24 µM (inactive)	27.1 µM (inactive)	> 100 µM (inactive)	> 100 µM (inactive)	> 100 µM (inactive)	66.8 µM (inactive)	33.4 µM (inactive)	99.3 µM (inactive)	15.8 µM (inactive)	79.8 µM (inactive)	13.9 µM (inactive)
CC1Oc2c(c(=O)oc3ccccc23)[C@@]1(C)CC1C[C@H](C)C(=O)O1 (stereo not given in full)	16.4 µM (inactive)	18.3 µM (inactive)	> 10 µM (inactive)	50.5 µM (inactive)	> 10 µM (inactive)	18.3 µM	24.7 µM (inactive)	40.8 µM (inactive)	27.4 µM (inactive)	> 100 µM (inactive)	30.6 µM (inactive)	20.3 µM (inactive)	62.4 µM (inactive)	24.4 µM (inactive)	19.1 µM (inactive)	26.9 µM (inactive)	27.1 µM (inactive)	31.1 µM (inactive)	19.1 µM (inactive)	> 10 µM (inactive)
COc1ccc2c(c1)CN1C(=N2)CSC1c1cc([N+](=O)[O-])ccc1Cl (stereo not given)	37.9 µM (inactive)	46.6 µM (inactive)	65.6 µM (inactive)	45.3 µM (inactive)	31.9 µM (inactive)	30.6 µM	52.1 µM (inactive)	36.1 µM (inactive)	31.3 µM (inactive)	> 100 µM (inactive)	47.1 µM (inactive)	31.6 µM (inactive)	52.6 µM (inactive)	44.7 µM (inactive)	23.2 µM (inactive)	31 µM (inactive)	24.7 µM (inactive)	54.5 µM (inactive)	27.3 µM (inactive)	33.8 µM (inactive)
COc1c(O)ccc(C2=Cc3ccc(O)cc3OC2)c1OC	16.3 µM (inactive)	20.2 µM (inactive)	23 µM (inactive)	24 µM (inactive)	31 µM (inactive)	14.1 µM	14.9 µM (inactive)	18.6 µM (inactive)	26.1 µM (inactive)	55.2 µM (inactive)	19.5 µM (inactive)	21 µM (inactive)	55.3 µM (inactive)	6.56 µM (inactive)	16.2 µM (inactive)	26.7 µM (inactive)	30.4 µM (inactive)	20.7 µM (inactive)	8.81 µM (inactive)	2.15 µM (inactive)
Nc1nc(Sc2ccc([N+](=O)[O-])c3nonc23)c2nc[nH]c2n1	0.489 µM (active)	0.681 µM (active)	1.97 µM (inactive)	0.425 µM (active)	0.627 µM (active)	1.89 µM	3.31 µM (inactive)	3.34 µM (inactive)	0.232 µM (active)	0.687 µM (active)	6.58 µM (inactive)	0.363 µM (active)	15.8 µM (inactive)	2.22 µM (inactive)	0.43 µM (active)	1.01 µM (active)	1.59 µM (inactive)	0.731 µM (active)	0.36 µM (active)	0.0822 µM (active)
[O-][N+](CCO)(CCO)c1ncnc2[nH]cnc12	> 100 µM (inactive)	> 100 µM (inactive)	> 100 µM (inactive)	> 100 µM (inactive)	–	> 100 µM	> 100 µM (inactive)	> 100 µM (inactive)	> 100 µM (inactive)	> 100 µM (inactive)	> 100 µM (inactive)	> 100 µM (inactive)	> 100 µM (inactive)	> 100 µM (inactive)	> 100 µM (inactive)	> 100 µM (inactive)	> 100 µM (inactive)	> 100 µM (inactive)	> 100 µM (inactive)	> 100 µM (inactive)
COC(=O)C1=C(C)NC(C)=C(C(=O)OC)C1c1ccc(N=O)cc1	14.6 µM (inactive)	22.1 µM (inactive)	19.5 µM (inactive)	16.6 µM (inactive)	18.9 µM (inactive)	9.53 µM	13.4 µM (inactive)	15.8 µM (inactive)	5.9 µM (inactive)	15.4 µM (inactive)	7.31 µM (inactive)	11.2 µM (inactive)	38.7 µM (inactive)	13.8 µM (inactive)	15.3 µM (inactive)	3.61 µM (inactive)	13.6 µM (inactive)	11.4 µM (inactive)	8.3 µM (inactive)	0.776 µM (active)
CC1C(c2ccccc2O)c2cc3c(cc2OC1N1CCCC1)OCO3 (stereo not given)	20 µM (inactive)	33.3 µM (inactive)	19.4 µM (inactive)	88.7 µM (inactive)	16.1 µM (inactive)	19.8 µM	22.2 µM (inactive)	28.1 µM (inactive)	18.4 µM (inactive)	39.2 µM (inactive)	18.2 µM (inactive)	17.9 µM (inactive)	49.4 µM (inactive)	32.7 µM (inactive)	35.5 µM (inactive)	20.8 µM (inactive)	17.1 µM (inactive)	27.8 µM (inactive)	34.7 µM (inactive)	18.8 µM (inactive)
O=C(O)c1nn(-c2ccccc2-c2nnc(O)nc2O)c(=O)[nH]c1=O	> 100 µM (inactive)	> 100 µM (inactive)	> 100 µM (inactive)	> 100 µM (inactive)	> 100 µM (inactive)	> 100 µM	> 100 µM (inactive)	> 100 µM (inactive)	> 100 µM (inactive)	> 100 µM (inactive)	> 100 µM (inactive)	> 100 µM (inactive)	> 100 µM (inactive)	> 100 µM (inactive)	> 100 µM (inactive)	> 100 µM (inactive)	> 100 µM (inactive)	> 100 µM (inactive)	> 100 µM (inactive)	> 100 µM (inactive)
O=C(O)C1=NN(c2ccc(S(=O)(=O)O)cc2)C2(C1)C(Cl)C(=O)N2c1nc2ccccc2s1 (stereo not given)	16.1 µM (inactive)	17.9 µM (inactive)	17.8 µM (inactive)	15.6 µM (inactive)	16 µM (inactive)	20.6 µM	13.5 µM (inactive)	16.6 µM (inactive)	2.99 µM (inactive)	18 µM (inactive)	47.6 µM (inactive)	15.7 µM (inactive)	21.3 µM (inactive)	17 µM (inactive)	14.4 µM (inactive)	2.68 µM (inactive)	17.8 µM (inactive)	19 µM (inactive)	15.4 µM (inactive)	7.82 µM (inactive)
COC(=O)CCNC(=O)OCc1ccccc1	> 100 µM (inactive)	> 100 µM (inactive)	> 100 µM (inactive)	> 100 µM (inactive)	> 100 µM (inactive)	> 100 µM	> 100 µM (inactive)	> 100 µM (inactive)	> 100 µM (inactive)	> 100 µM (inactive)	> 100 µM (inactive)	> 100 µM (inactive)	> 100 µM (inactive)	> 100 µM (inactive)	> 100 µM (inactive)	> 100 µM (inactive)	> 100 µM (inactive)	> 100 µM (inactive)	> 100 µM (inactive)	> 100 µM (inactive)
CCCn1c2c(c3ccccc3c1=O)C(=O)c1ccccc1-2	16.4 µM (inactive)	> 73.1 µM (inactive)	> 62.4 µM (inactive)	> 100 µM (inactive)	7.23 µM (inactive)	–	> 48.8 µM (inactive)	> 100 µM (inactive)	> 100 µM (inactive)	61.8 µM (inactive)	44.5 µM (inactive)	68.1 µM (inactive)	> 100 µM (inactive)	53.6 µM (inactive)	> 100 µM (inactive)	> 53.5 µM (inactive)	> 29.8 µM (inactive)	> 40.4 µM (inactive)	48.3 µM (inactive)	5.14 µM (inactive)
Cc1ccc(S(=O)(=O)n2cc(/C=C/C#N)c(-c3cn(S(=O)(=O)c4ccc(C)cc4)cc3-c3cn(S(=O)(=O)c4ccc(C)cc4)cc3/C=C/C#N)c2)cc1	> 100 µM (inactive)	> 100 µM (inactive)	> 100 µM (inactive)	> 100 µM (inactive)	–	> 100 µM	> 100 µM (inactive)	94.2 µM (inactive)	93.8 µM (inactive)	40.4 µM (inactive)	90.2 µM (inactive)	47 µM (inactive)	> 100 µM (inactive)	> 100 µM (inactive)	> 100 µM (inactive)	–	> 100 µM (inactive)	18.5 µM (inactive)	> 100 µM (inactive)	> 100 µM (inactive)
O=C1CSC2=NC3=C(COC/C3=C\c3ccc(Br)cc3)C(c3ccc(Br)cc3)N12 (stereo not given)	83.6 µM (inactive)	> 100 µM (inactive)	> 100 µM (inactive)	> 100 µM (inactive)	51.2 µM (inactive)	52.6 µM	70.5 µM (inactive)	41.8 µM (inactive)	53.6 µM (inactive)	97.9 µM (inactive)	> 100 µM (inactive)	28.8 µM (inactive)	> 100 µM (inactive)	82.8 µM (inactive)	> 100 µM (inactive)	52.4 µM (inactive)	–	> 100 µM (inactive)	> 100 µM (inactive)	15.3 µM (inactive)
